From patent publication US20240207302A1, “ANTIVIRAL COMPOUNDS, METHODS FOR THE MANUFACTURING OF COMPOUNDS, ANTIVIRAL PHARMACEUTICAL COMPOSITION, USE OF THE COMPOUNDS AND METHOD FOR THE ORAL TREATMENT OF CORONAVIRUS INFECTION AND RELATED DISEASES THEREOF” (priority 2021, published 2024)
Read-outs that look alike come from different tables or passages of the source.

How the values were obtained:
[1] = Cytotoxicity assay (XTT) in Huh-7 cells; type: cell-based; settings: human
Method: In parallel, cytotoxicity assays were performed. Monolayers of 1.5×10^4 cells in 96-well plates were treated for 3 days with various concentrations (semi-log dilutions from 1,000 to 10 μM) of the antiviral drugs. Then, 5 mg/mL 2,3-bis-(2-methoxy-4-nitro-5-sulfophenyl)-2H-tetrazolium-5-carboxanilide (XTT) in DMEM was added to the cells in the presence of 0.01% of N-methyl dibenzopyrazine methyl sulfate (PMS).

[2] = Maximum tolerated dose (OECD 425) and tolerability; type: in vivo; settings: mice
Method: The present assay was designed to investigate the safety and tolerability of MB-905. For the MTD assay (OECD 425), mice (3 animals of each sex/group) were divided into five experimental groups and the up and down procedure was applied to which 175 mg/kg was used as the first dose. […] Mortality, morbidity, body weight, food consumption, general and detailed clinical signs of toxicity were evaluated. At necropsy, vital (brain, heart, liver, spleen, kidneys and adrenal glands) and reproductive organs (ovaries, testicles and epididymis) were carefully removed, weighed and stored for further analysis (if necessary).

[3] = test system: murine hepatitis virus (MHV); type: in vivo, mice; settings: DAC 60 mg/kg/day
[4] = test system: SARS-COV-2; experiment: SARS-COV-2 viral RNA synthesis in HuH-7 cells (real time RT-PCR); type: cell-based
[5] = test system: SARS-COV-2; experiment: Combination with SARS-COV-2 nsp14 (exonuclease) inhibitors in Calu-3 cells, infectious virus titers; type: cell-based
[6] = test system: SARS-COV-2 VoC gamma; type: in vivo, mice
[7] = molecular target: human ERG potassium channel (ether-a-gogo-related gene, Kv11.1) (Homo sapiens, UniProt Q12809); experiment: hERG FLIPR Potassium assay in HEK293 cells; settings: up to 300 μM
Sequence of human ERG potassium channel (ether-a-gogo-related gene, Kv11.1) (Q12809 whole entry): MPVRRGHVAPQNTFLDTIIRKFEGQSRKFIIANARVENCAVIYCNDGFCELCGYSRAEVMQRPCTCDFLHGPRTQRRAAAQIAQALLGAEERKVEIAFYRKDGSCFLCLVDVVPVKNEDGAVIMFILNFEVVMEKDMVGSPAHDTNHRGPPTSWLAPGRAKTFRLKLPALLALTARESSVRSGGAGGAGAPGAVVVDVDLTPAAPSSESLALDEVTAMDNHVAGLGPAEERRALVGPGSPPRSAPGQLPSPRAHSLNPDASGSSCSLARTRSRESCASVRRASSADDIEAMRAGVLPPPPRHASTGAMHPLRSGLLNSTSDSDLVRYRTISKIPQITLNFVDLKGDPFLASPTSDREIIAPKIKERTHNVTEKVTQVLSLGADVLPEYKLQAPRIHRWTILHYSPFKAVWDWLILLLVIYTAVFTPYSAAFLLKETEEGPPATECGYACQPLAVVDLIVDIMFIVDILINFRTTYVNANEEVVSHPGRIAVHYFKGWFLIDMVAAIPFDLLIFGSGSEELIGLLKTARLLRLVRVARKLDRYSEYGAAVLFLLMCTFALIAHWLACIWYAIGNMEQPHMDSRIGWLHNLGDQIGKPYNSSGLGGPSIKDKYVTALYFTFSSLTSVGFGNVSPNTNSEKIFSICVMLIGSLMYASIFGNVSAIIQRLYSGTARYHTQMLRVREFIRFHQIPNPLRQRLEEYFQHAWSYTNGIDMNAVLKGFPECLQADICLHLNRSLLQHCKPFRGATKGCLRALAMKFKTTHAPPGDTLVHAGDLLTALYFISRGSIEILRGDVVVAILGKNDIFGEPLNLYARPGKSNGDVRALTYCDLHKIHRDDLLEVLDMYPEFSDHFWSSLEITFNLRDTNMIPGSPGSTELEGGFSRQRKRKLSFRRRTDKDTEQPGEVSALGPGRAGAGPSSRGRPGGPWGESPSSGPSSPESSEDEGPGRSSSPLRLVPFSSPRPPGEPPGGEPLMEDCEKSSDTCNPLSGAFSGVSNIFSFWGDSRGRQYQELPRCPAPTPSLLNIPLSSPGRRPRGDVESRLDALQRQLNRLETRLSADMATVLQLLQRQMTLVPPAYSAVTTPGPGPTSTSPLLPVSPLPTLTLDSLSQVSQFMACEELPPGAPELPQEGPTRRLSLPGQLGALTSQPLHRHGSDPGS

[8] = Toxicokinetics in the 28-day study; type: in vivo, mice; settings: for AUC / Cmax / Tmax / half-life: CD1, mouse, in vivo, po
[9] = test system: SARS-COV-2; experiment: SARS-COV-2 viral RNA synthesis in Calu-3 cells (real time RT-PCR); type: cell-based; settings: 1.0 μM
[10] = Cytotoxicity assay (XTT) in Calu-3 cells; type: cell-based, human; settings: human, Calu-3 cells, Table 6
Method: In parallel, cytotoxicity assays were performed.

[11] = test system: SARS-COV-2 viral RNA; experiment: Immunoprecipitation of viral RNA with anti-kinetin antibody, RT-PCR; type: cell-based; settings: SARS-COV-2-infected calu-3 cells
[12] = Severe acute respiratory syndrome coronavirus 2, Calu-3, alone or in combination as labelled
[13] = 140 mg/kg/day alone and in combination with DTG
[14] = 140 mg/kg/day, vs untreated animals
[15] = female, 10 mg/kg, female mice, 10 mg/kg, Day 0
[16] = female, 10 mg/kg, female mice, 10 mg/kg, Day 28
[17] = female, 80 mg/kg, female mice, 80 mg/kg, Day 0
[18] = female, 80 mg/kg, female mice, 80 mg/kg, Day 28
[19] = female, 250 mg/kg, female mice, 250 mg/kg, Day 0
[20] = female, 250 mg/kg, female mice, 250 mg/kg, Day 28
[21] = male, 10 mg/kg, male mice, 10 mg/kg, Day 0
[22] = male, 10 mg/kg, male mice, 10 mg/kg, Day 28
[23] = male, 80 mg/kg, male mice, 80 mg/kg, Day 0
[24] = male, 80 mg/kg, male mice, 80 mg/kg, Day 28
[25] = male, 250 mg/kg, male mice, 250 mg/kg, Day 0
[26] = male, 250 mg/kg, male mice, 250 mg/kg, Day 28

## c1coc(CNc2ncnc3[nH]cnc23)c1 [MB-905, kinetin]
[1]
  CC50 at 3 days: 560 µM
[2]; both sexes, mouse, in vivo, oral, MTD study
  NOAEL at 7 days: 550 mg/kg
[2]; 1,150 mg/kg oral
  clinical signs: piloerection, reduced touch response, prostration, loss of grasping strength, decrease in body temperature and death
  death after compound administration, time: ≤ 4 h
[2]; 175, 550 and 850 mg/kg oral
  clinical signs: did not result in any observable clinical signs indicating toxicity
  morbidity and mortality: did not result in any signs indicative of toxicity
[2]; single 175, 550 or 850 mg/kg
  body weight change and food consumption: not observed any significant change
[2]; single oral 175, 550 or 850 mg/kg
  organs weight: did not show any changes
[3]; MB-905 250 mg/kg/day
  weight recovery: did not allow complete weight recovery
[3]; day 11, MB-905 250 mg/kg/day
  inflammatory cells in the respiratory tract: less inflammatory cells
[3]; oral gavage daily from day 2, MB-905 250 mg/kg/day
  mortality: reduced the mice mortality by half
[4]; Severe acute respiratory syndrome coronavirus 2, Huh-7 (MOI 0.1 48 h), read-out: EC50
  EC50: 0.1 µM
[4]; huh-7, adenine at 10 μM
  anti-coronavirus activity with simultaneous adenine: prevented
[4]; huh-7, treatment just after inoculation
  anti-coronavirus activity (SARS-COV-2 replication): concentration dependent inhibition
[5]; [12]
  EC50: 0.3 µM
  EC90: 8 µM
[5]; calu-3, drug 10 μM, raltegravir or dolutegravir 5 μM
  effect of co-treatment with raltegravir or dolutegravir (iEXO) on inhibition of SARS-COV-2: synergistic
[6]; [13]
  body weight: sustain their masses beyond the threshold of euthanasia
  overall clinical scores: improved
[6]; 140 mg/kg/day with or without DTG
  virus RNA levels in the lungs: did not alter
[6]; 140 mg/kg/day with or without DTG, BAL
  infectious titers: decreased significantly
[6]; [14]
  IL-6 in BAL: reduced
  KC in BAL: reduced
  TNF-α in BAL: reduced
  inflammatory cells counts in BAL: reduced
[6]; 70 mg/kg/day oral with DTG
  survival: Higher survival rates
[6]; 140 mg/kg/day oral, combined or not with DTG
  survival: Higher survival rates
[6]; alone or combined with DTG
  lung necrosis: reduced
[7]
  inhibition of potassium permeation through the hERG channel: about 20%
[8]; [15]
  AUC: 422 ng·h/mL
  Cmax: 288 ng/mL
  Tmax: 15 min
[8]; [16]
  AUC: 56.6 ng·h/mL
  Cmax: 95 ng/mL
  Tmax: 15 min
[8]; [17]
  AUC: 5010 ng·h/mL
  Cmax: 747 ng/mL
  Tmax: 15 min
  half-life: 1550 min
[8]; [18]
  AUC: 1590 ng·h/mL
  Cmax: 464 ng/mL
  Tmax: 15 min
  half-life: 65.4 min
[8]; [19]
  AUC: 4910 ng·h/mL
  Cmax: 898 ng/mL
  Tmax: 15 min
  half-life: 185 min
[8]; [20]
  AUC: 2080 ng·h/mL
  Cmax: 716 ng/mL
  Tmax: 15 min
  half-life: 155 min
[8]; [21]
  AUC: 91 ng·h/mL
  Cmax: 99 ng/mL
  Tmax: 15 min
[8]; [22]
  AUC: 121 ng·h/mL
  Cmax: 144 ng/mL
  Tmax: 15 min
[8]; [23]
  AUC: 1020 ng·h/mL
  Cmax: 598 ng/mL
  Tmax: 15 min
  half-life: 72.6 min
[8]; [24]
  AUC: 1170 ng·h/mL
  Cmax: 750 ng/mL
  Tmax: 15 min
[8]; [25]
  AUC: 4480 ng·h/mL
  Cmax: 793 ng/mL
  Tmax: 60 min
[8]; [26]
  AUC: 1130 ng·h/mL
  Cmax: 588 ng/mL
  Tmax: 15 min
  half-life: 91.8 min
[8]; mice, males and females
  accumulation (AUCall and Cmax day 0 vs day 28): no there was an accumulation
[9]
  inhibition of SARS-COV-2 RNA synthesis: best profiles
[10]; Calu-3, daily treatment
  CC50 at 3 days: 538 µM
[10]; Calu-3, single treatment
  CC50 at 3 days: 620 µM
[11]
  levels of N6-furfuryladenine in viral RNA vs isotype control and nil-treated cells: more than 10 fold
